In PubChem BioAssay (NCI) one finds GI50 and TGI data, which are given here for ten molecules.

Common to all, as to test: growth of human tumour cells (NCI), 48 h
Assay [1] concerns PC-3 prostate.
In assay [2] the test system is M14 melanoma.
Assay [3] relates to HCT-116 colon.
Assay [4] deals with HCT-15 colon.
For assay [5], the system named is HL-60(TB) leukemia.
The test system of assay [6] is UACC-257 melanoma.
Assay [7] concerns NCI-H23 lung.
In assay [8] the test system is NCI-H226 lung.

Molecules are shown by their SMILES.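 Five concentrations, 48 hours, 96-well plates. Here, GI50 denotes the concentration required for 50% inhibition of growth. Definition used: TGI = concentration required for complete inhibition of growth.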

On to `C=C1C(=O)O[C@H]2[C@H]1CC/C(COC(=O)c1ccc3ccccc3c1)=C\CC[C@@]1(C)O[C@@H]21`, for which the GI50 is 1.24 µM in assay [1]; 1.13 µM in assay [2]; 0.379 µM in assay [3]; 0.394 µM in assay [4]; 0.849 µM in assay [5]; 1.39 µM in assay [6]. In addition, the GI50 was 1.6 µM in assay [7] and 1.42 µM in assay [8]. For the same molecule, the TGI in assay [1] was found to be 2.79 µM; in assay [2], 2.68 µM; in assay [3], 1.6 µM; in assay [4], 1.66 µM; in assay [5], 3.83 µM; in assay [6], 2.78 µM. In addition, the TGI in assay [7] is 3.36 µM; in assay [8] it was 3.21 µM.
Regarding `C=C1C(=O)O[C@H]2[C@H]1CC/C(Cn1cc(-c3ccc(OC)cc3)nn1)=C\CC[C@@]1(C)O[C@@H]21`, the GI50 is 9.35 µM in assay [1]; 1.3 µM in assay [2]; 0.488 µM in assay [3]; 0.338 µM in assay [4]; 1.17 µM in assay [5]; 1.78 µM in assay [6]. Besides, the GI50 was 2.06 µM in assay [7] and 1.99 µM in assay [8]. The TGI came to 22.2 µM in assay [1]; 3.09 µM in assay [2]; 1.79 µM in assay [3]; 1.38 µM in assay [4]; 3.86 µM in assay [5]; 3.85 µM in assay [6]. The TGI is 4.58 µM in assay [7] and 4.45 µM in assay [8].
For `O=c1[nH]ncc(Br)c1Br`, the GI50 is 5.45 µM in assay [1]; 2.09 µM in assay [2]; 1.8 µM in assay [3]; 1.72 µM in assay [4]; 2.22 µM in assay [5]; 2 µM in assay [6]. In addition, the GI50 in assay [7] is 1.92 µM; in assay [8] it was 2.19 µM. The TGI turned out to be 20.8 µM in assay [1]; 4.23 µM in assay [2]; 3.42 µM in assay [3]; 3.3 µM in assay [4]; 4.27 µM in assay [5]; 4.84 µM in assay [6]. Moreover, the TGI in assay [7] is 3.54 µM; in assay [8], 5.96 µM.
As to `O=C1c2cc(Cl)ccc2S(=O)(=O)c2c(NCCCNCCO)nc3ccccc3c21`, the GI50 in assay [1] was 1.53 µM; in assay [2] it was 1.95 µM; in assay [3], 1.49 µM; in assay [4], 0.926 µM; in assay [5], 2.1 µM; in assay [6] it was 1.55 µM. Further, the values for the GI50 in assay [7] and in assay [8] were 1.77 µM and 10.1 µM, respectively. Also, the TGI in assay [1] was 3.66 µM; in assay [2] it was 4.9 µM; in assay [3], 3.26 µM; in assay [4], 2.35 µM; in assay [5] it was 6.79 µM; in assay [6], 3.42 µM. Moreover, the TGI turned out to be 4.4 µM in assay [7] and 22.7 µM in assay [8].
Regarding `COc1ccc(/C=C/c2nccc3ccccc23)cc1OC`, the TGI in assay [1], in assay [2], in assay [3], in assay [4], in assay [5] and in assay [6] was more than 10 µM throughout. Moreover, the TGI in assay [7] and in assay [8] was more than 10 µM throughout.
As to `C=CCCCCCCCCC(=O)[O][Sn]([CH2]CCC)([CH2]CCC)[CH2]CCC`, the GI50 in assay [1] was 0.187 µM; in assay [2] it was 0.156 µM; in assay [3], 0.133 µM; in assay [4] it was 0.158 µM; in assay [5] it was 0.169 µM; in assay [6] it was 0.144 µM. The values for the GI50 in assay [7] and in assay [8] were 0.115 µM and 0.17 µM, respectively. Moreover, the TGI in assay [1] is 0.409 µM; in assay [2], 0.299 µM; in assay [3] it was 0.262 µM; in assay [4] it was 0.348 µM; in assay [5], 0.464 µM; in assay [6], 0.291 µM. The results for the TGI in assay [7] and in assay [8] were 0.254 µM and 0.325 µM, respectively.
With `Nc1cc(N)c2nc(-c3ccccc3)c(Nc3ccc(Cl)c(Cl)c3)nc2c1`, the GI50 was 3.12 µM in assay [1]; 14.7 µM in assay [2]; 10.6 µM in assay [3]; 21.2 µM in assay [4]; 2.59 µM in assay [5]; 11.4 µM in assay [6]. In addition, the GI50 was 19.1 µM in assay [7] and 17.5 µM in assay [8]. The TGI was 15.1 µM in assay [1]; 60 µM in assay [2]; 53 µM in assay [3]; more than 100 µM in assay [4]; 71.7 µM in assay [5]; 28.2 µM in assay [6]. For the same molecule, the TGI in assay [7] was determined as 55.2 µM; in assay [8] it was 37.6 µM.
Consider `CC(C)(CC(=O)Nc1ccccc1)C(=O)O`, for which the TGI in assay [1], in assay [2], in assay [3], in assay [4], in assay [5] and in assay [6] was more than 100 µM in each case. Also, the TGI in assay [7] and in assay [8] was more than 100 µM throughout.
For the molecule `Cn1c(=O)c2[nH]c(SCc3ccccn3)nc2n(C)c1=S`, the TGI in assay [1], in assay [2], in assay [3], in assay [4], in assay [5] and in assay [6] was more than 100 µM throughout. Further, the TGI in assay [7] and in assay [8] was more than 100 µM throughout.
`N#Cc1ccc(NC(=O)Nc2ccc(Oc3ccc(NC(=O)Nc4ccc(C#N)cc4)cc3)cc2)cc1`: the GI50 was 25.6 µM in assay [1]; 28.3 µM in assay [2]; 4.02 µM in assay [3]; 18 µM in assay [4]; 1.17 µM in assay [5]; 29.1 µM in assay [6]. Also, the results for the GI50 in assay [7] and in assay [8] were 6.53 µM and 23.1 µM, respectively. The TGI in assay [1] was more than 100 µM; in assay [2], more than 100 µM; in assay [3], more than 100 µM; in assay [4] it was more than 100 µM; in assay [5], 83.8 µM; in assay [6], more than 100 µM. For the same molecule, the TGI in assay [7] is 56.5 µM; in assay [8] it was more than 100 µM.
